Here are results for two molecules from ChEMBL document CHEMBL3244338, “Antineoplastic agents. Structure-activity relationship study of bis(substituted aminoalkylamino)anthraquinones” (J Med Chem, 1978).

Data set [1] has as its system Mus musculus. Put plainly: Toxicity in mouse P388 cells allografted BDF1 mouse assessed as body weight difference at 0.25 mg/kg administered 24 hrs post challenge relative to control. The class given is organism-based. More on the design: dose 0.25 mg/kg. As to conditions: in vivo.
Data set [2] has as its system P388. Put plainly: Antitumor activity against mouse P388 cells allografted in BDF1 mouse assessed as mouse survival at 0.06 mg/kg administered 24 hrs post challenge relative to control. The class given is functional, organism-based. More on the design: dose 0.06 mg/kg.
The subject of data set [3] is P388. The experiment in a line: Antitumor activity against mouse P388 cells allografted in BDF1 mouse assessed as increase in survival time at 0.5 mg/kg administered 24 hrs post challenge relative to control. The class given is functional.
The subject of data set [4] is Mus musculus. Put plainly: Toxicity in mouse P388 cells allografted BDF1 mouse assessed as body weight difference at 0.12 mg/kg administered 24 hrs post challenge relative to control. The class given is organism-based. More on the design: dose 0.12 mg/kg. The conditions noted are these: in vivo.
The test system of data set [5] is P388. Put plainly: Antitumor activity against mouse P388 cells allografted in BDF1 mouse assessed as increase in survival time at 0.25 mg/kg administered 24 hrs post challenge relative to control. The class given is functional.
Data set [6] deals with P388. Put plainly: Antitumor activity against mouse P388 cells allografted in BDF1 mouse assessed as mouse survival at 0.5 mg/kg administered 24 hrs post challenge relative to control. Also on record: dose 0.5 mg/kg. The class given is functional, organism-based.
Data set [7] has as its system B16. The experiment in a line: Antitumor activity against mouse B16 cells allografted in BDF1 mouse assessed as increase in survival time at 0.5 mg/kg administered 24 hrs post challenge relative to control. It is filed as functional.
Data set [8] concerns P388. Put plainly: Antitumor activity against mouse P388 cells allografted in BDF1 mouse assessed as increase in survival time at 2 mg/kg administered 24 hrs post challenge relative to control. It is filed as functional.
In data set [9] the test system is P388. Put plainly: Antitumor activity against mouse P388 cells allografted in BDF1 mouse assessed as mouse survival at 2 mg/kg administered 24 hrs post challenge relative to control. The class given is functional, organism-based. Also on record: dose 2 mg/kg.
Data set [10] concerns Mus musculus. The experiment in a line: Toxicity in mouse P388 cells allografted BDF1 mouse assessed as body weight difference at 2 mg/kg administered 24 hrs post challenge relative to control. The conditions noted are these: in vivo. It is filed as organism-based. More on the design: dose 2 mg/kg.
For data set [11], the system named is P388. The experiment in a line: Antitumor activity against mouse P388 cells allografted in BDF1 mouse assessed as increase in survival time at 0.06 mg/kg administered 24 hrs post challenge relative to control. The class given is functional.
In data set [12] the test system is Mus musculus. The experiment in a line: Toxicity in mouse P388 cells allografted BDF1 mouse assessed as body weight difference at 0.5 mg/kg administered 24 hrs post challenge relative to control. The class given is organism-based. More on the design: dose 0.5 mg/kg. As to conditions: in vivo.
Data set [13] deals with Mus musculus. Put plainly: Toxicity in mouse P388 cells allografted BDF1 mouse assessed as body weight difference at 0.06 mg/kg administered 24 hrs post challenge relative to control. Also on record: dose 0.06 mg/kg. As to conditions: in vivo. The class given is organism-based.
In data set [14] the test system is P388. The experiment in a line: Antitumor activity against mouse P388 cells allografted in BDF1 mouse assessed as mouse survival at 0.12 mg/kg administered 24 hrs post challenge relative to control. The class given is functional, organism-based. Also on record: dose 0.12 mg/kg.
Data set [15] deals with Mus musculus. Put plainly: Toxicity in mouse P388 cells allografted BDF1 mouse assessed as body weight difference at 1 mg/kg administered 24 hrs post challenge relative to control. The class given is organism-based. More on the design: dose 1 mg/kg. As to conditions: in vivo.
Data set [16] concerns P388. Put plainly: Antitumor activity against mouse P388 cells allografted in BDF1 mouse assessed as increase in survival time at 1 mg/kg administered 24 hrs post challenge relative to control. It is filed as functional.
In data set [17] the test system is P388. The experiment in a line: Antitumor activity against mouse P388 cells allografted in BDF1 mouse assessed as mouse survival at 0.25 mg/kg administered 24 hrs post challenge relative to control. It is filed as functional, organism-based. More on the design: dose 0.25 mg/kg.
Data set [18] deals with P388. Put plainly: Antitumor activity against mouse P388 cells allografted in BDF1 mouse assessed as increase in survival time at 0.12 mg/kg administered 24 hrs post challenge relative to control. It is filed as functional.
For data set [19], the system named is B16. Put plainly: Antitumor activity against mouse B16 cells allografted in BDF1 mouse assessed as increase in survival time at 1 mg/kg administered 24 hrs post challenge relative to control. The class given is functional.
For data set [20], the system named is Mus musculus. Put plainly: Toxicity in mouse P388 cells allografted BDF1 mouse assessed as body weight difference at 1.56 mg/kg administered 24 hrs post challenge relative to control. Also on record: dose 1.56 mg/kg. The conditions noted are these: in vivo. It is filed as organism-based.
In data set [21] the test system is B16. The experiment in a line: Antitumor activity against mouse B16 cells allografted in BDF1 mouse assessed as increase in survival time at 16 mg/kg administered 24 hrs post challenge relative to control. It is filed as functional.
For data set [22], the system named is P388. The experiment in a line: Antitumor activity against mouse P388 cells allografted in BDF1 mouse assessed as mouse survival at 25 mg/kg administered 24 hrs post challenge relative to control. It is filed as functional, organism-based. Also on record: dose 25 mg/kg.
Data set [23] deals with Mus musculus. The experiment in a line: Toxicity in mouse P388 cells allografted BDF1 mouse assessed as body weight difference at 12.5 mg/kg administered 24 hrs post challenge relative to control. The class given is organism-based. Also on record: dose 12.5 mg/kg. As to conditions: in vivo.
Data set [24] concerns P388. Put plainly: Antitumor activity against mouse P388 cells allografted in BDF1 mouse assessed as increase in survival time at 0.78 mg/kg administered 24 hrs post challenge relative to control. It is filed as functional.
Data set [25] relates to Mus musculus. Put plainly: Toxicity in mouse P388 cells allografted BDF1 mouse assessed as body weight difference at 25 mg/kg administered 24 hrs post challenge relative to control. As to conditions: in vivo. More on the design: dose 25 mg/kg. The class given is organism-based.
The test system of data set [26] is P388. The experiment in a line: Antitumor activity against mouse P388 cells allografted in BDF1 mouse assessed as increase in survival time at 3.13 mg/kg administered 24 hrs post challenge relative to control. The class given is functional.
Data set [27] concerns P388. The experiment in a line: Antitumor activity against mouse P388 cells allografted in BDF1 mouse assessed as mouse survival at 12.5 mg/kg administered 24 hrs post challenge relative to control. The class given is functional, organism-based. More on the design: dose 12.5 mg/kg.
The test system of data set [28] is B16. Put plainly: Antitumor activity against mouse B16 cells allografted in BDF1 mouse assessed as increase in survival time at 8 mg/kg administered 24 hrs post challenge relative to control. It is filed as functional.
Data set [29] deals with B16. The experiment in a line: Antitumor activity against mouse B16 cells allografted in BDF1 mouse assessed as increase in survival time at 4 mg/kg administered 24 hrs post challenge relative to control. It is filed as functional.
The subject of data set [30] is P388. Put plainly: Antitumor activity against mouse P388 cells allografted in BDF1 mouse assessed as mouse survival at 1.56 mg/kg administered 24 hrs post challenge relative to control. The class given is functional, organism-based. More on the design: dose 1.56 mg/kg.
Data set [31] relates to P388. Put plainly: Antitumor activity against mouse P388 cells allografted in BDF1 mouse assessed as mouse survival at 0.78 mg/kg administered 24 hrs post challenge relative to control. It is filed as functional, organism-based. More on the design: dose 0.78 mg/kg.
Data set [32] relates to Mus musculus. Put plainly: Toxicity in mouse P388 cells allografted BDF1 mouse assessed as body weight difference at 0.78 mg/kg administered 24 hrs post challenge relative to control. As to conditions: in vivo. Also on record: dose 0.78 mg/kg. The class given is organism-based.
Data set [33] relates to P388. Put plainly: Antitumor activity against mouse P388 cells allografted in BDF1 mouse assessed as increase in survival time at 6.25 mg/kg administered 24 hrs post challenge relative to control. It is filed as functional.
Data set [34] concerns P388. Put plainly: Antitumor activity against mouse P388 cells allografted in BDF1 mouse assessed as increase in survival time at 12.5 mg/kg administered 24 hrs post challenge relative to control. It is filed as functional.
The test system of data set [35] is P388. The experiment in a line: Antitumor activity against mouse P388 cells allografted in BDF1 mouse assessed as increase in survival time at 25 mg/kg administered 24 hrs post challenge relative to control. It is filed as functional.
Data set [36] concerns Mus musculus. The experiment in a line: Toxicity in mouse P388 cells allografted BDF1 mouse assessed as body weight difference at 6.25 mg/kg administered 24 hrs post challenge relative to control. It is filed as organism-based. More on the design: dose 6.25 mg/kg. The conditions noted are these: in vivo.
Data set [37] has as its system P388. Put plainly: Antitumor activity against mouse P388 cells allografted in BDF1 mouse assessed as mouse survival at 3.13 mg/kg administered 24 hrs post challenge relative to control. More on the design: dose 3.13 mg/kg. The class given is functional, organism-based.
Data set [38] has as its system P388. The experiment in a line: Antitumor activity against mouse P388 cells allografted in BDF1 mouse assessed as mouse survival at 6.25 mg/kg administered 24 hrs post challenge relative to control. The class given is functional, organism-based. Also on record: dose 6.25 mg/kg.
Data set [39] concerns Mus musculus. Put plainly: Toxicity in mouse P388 cells allografted BDF1 mouse assessed as body weight difference at 3.13 mg/kg administered 24 hrs post challenge relative to control. As to conditions: in vivo. It is filed as organism-based. Also on record: dose 3.13 mg/kg.
Data set [40] concerns P388. Put plainly: Antitumor activity against mouse P388 cells allografted in BDF1 mouse assessed as increase in survival time at 1.56 mg/kg administered 24 hrs post challenge relative to control. The class given is functional.

Calls of active or inactive are those of the source. No cut-off for these calls is given here.

One may read the T/C as the ratio of treated to control. Take `O=C1c2c(O)ccc(O)c2C(=O)c2c(NCCNCCO)ccc(NCCNCCO)c21` [MITOXANTRONE]: the Activity was -2.3 g in the data set on Mus musculus [1]; -1.4 g in the data set on Mus musculus [4]; -0.6 g in the data set with Mus musculus [10]; -2 g with Mus musculus [12]; -1.7 g with Mus musculus [13]; -0.6 g in the data set on Mus musculus [15]. Besides, the result with P388 [2], with P388 [6], in the data set with P388 [9], with P388 [14] and in the data set with P388 [17] was Active. Besides, the T/C with P388 [3] is given as 299%; with P388 [5], 280%; in the data set on B16 [7] it was 466%; in the data set with P388 [8] it was 280%; in the data set with P388 [11] it was 208%; in the data set on P388 [16], 277%. For the same molecule, the figures for the T/C in the data set on P388 [18] and with B16 [19] were 200% and 503%, respectively.

In the case of `NCCNc1ccc(NCCN)c2c1C(=O)c1ccccc1C2=O`, the Activity with Mus musculus [20] is given as -1.6 g; in the data set on Mus musculus [23], -1.1 g; with Mus musculus [25] it was -2.6 g; with Mus musculus [32], -1.3 g; in the data set with Mus musculus [36] it was -1.1 g; with Mus musculus [39], -0.9 g. Further, the T/C in the data set with B16 [21] is 281%; in the data set on P388 [24], 150%; in the data set with P388 [26], 107%; in the data set on B16 [28] it was 280%; with B16 [29] it was 280%; in the data set on P388 [33] it was 159%. Further, the values for the T/C in the data set on P388 [34], in the data set with P388 [35] and in the data set with P388 [40] were 174%, 215% and 137%, respectively. Further, the outcome in the data set with P388 [22], in the data set on P388 [27], in the data set with P388 [30], in the data set on P388 [31], in the data set with P388 [37] and in the data set on P388 [38] was Active.
